Measured values taken from ChEMBL document CHEMBL3124777, “Synthesis and biological evaluation of thiazoline derivatives as new antimicrobial and anticancer agents” (Eur J Med Chem, 2014).
Converted amounts (≈) assume the structure as drawn.

Legend:
C6 [1] = assay: Cytotoxicity against rat C6 cells assessed as cell viability at 100 ug/ml after 24 hrs by MTT assay relative to control; format: functional; settings: C6, 24 h, read-out: Activity
Escherichia coli = assay: Antimicrobial activity against Escherichia coli ATCC 25922 after 18 to 24 hrs by microbroth dilution method; format: functional
Micrococcus luteus = assay: Antimicrobial activity against Micrococcus luteus NRLL B-4375 after 18 to 24 hrs by microbroth dilution method; format: functional
Staphylococcus aureus = assay: Antimicrobial activity against Staphylococcus aureus NRRL B-767 after 18 to 24 hrs by microbroth dilution method; format: functional
Fusarium solani = assay: Antimicrobial activity against Fusarium solani NRRL 13414 after 48 to 72 hrs by microbroth dilution method; format: functional
C6 [2] = assay: Cytotoxicity against rat C6 cells assessed as cell viability at 12 ug/ml after 24 hrs by MTT assay relative to control; format: functional; settings: C6, 24 h, read-out: Activity
Fusarium culmorum = assay: Antimicrobial activity against wild type Fusarium culmorum after 48 to 72 hrs by microbroth dilution method; format: functional
Candida albicans = assay: Antimicrobial activity against Candida albicans ATCC 22019 after 18 to 24 hrs by microbroth dilution method; format: functional
C6 [3] = assay: Cytotoxicity against rat C6 cells assessed as cell viability at 6 ug/ml after 24 hrs by MTT assay relative to control; format: functional; settings: C6, 24 h, read-out: Activity
Trichoderma harzianum = assay: Antimicrobial activity against Trichoderma harzianum NRRL 20565 after 48 to 72 hrs by microbroth dilution method; format: functional
Bacillus subtilis = assay: Antimicrobial activity against Bacillus subtilis NRS-744 after 18 to 24 hrs by microbroth dilution method; format: functional
NIH3T3 = assay: Cytotoxicity against mouse NIH/3T3 cells after 24 hrs by MTT assay; format: cell-based; settings: NIH3T3, 24 h
Aspergillus parasiticus = assay: Antimicrobial activity against Aspergillus parasiticus NRRL 465 after 48 to 72 hrs by microbroth dilution method; format: functional
C6 [4] = assay: Cytotoxicity against rat C6 cells assessed as cell viability at 200 ug/ml after 24 hrs by MTT assay relative to control; format: functional; settings: C6, 24 h, read-out: Activity
Fusarium verticillioides = assay: Antimicrobial activity against Fusarium moniliforme NRRL 1866 after 48 to 72 hrs by microbroth dilution method; format: functional
Penicillium chrysogenum = assay: Antimicrobial activity against Penicillium chrysogenum NRRL 1951 after 48 to 72 hrs by microbroth dilution method; format: functional
C6 [5] = assay: Cytotoxicity against rat C6 cells assessed as cell viability at 25 ug/ml after 24 hrs by MTT assay relative to control; format: functional; settings: C6, 24 h, read-out: Activity
C6 [6] = assay: Cytotoxicity against rat C6 cells assessed as cell viability at 50 ug/ml after 24 hrs by MTT assay relative to control; format: functional; settings: C6, 24 h, read-out: Activity
C6 [7] = assay: Cytotoxicity against rat C6 cells after 24 hrs by MTT assay; format: functional, cell-based; settings: C6, 24 h
Listeria monocytogenes = assay: Antimicrobial activity against Listeria monocytogenes ATCC 7644 after 18 to 24 hrs by microbroth dilution method; format: functional
Pseudomonas aeruginosa = assay: Antimicrobial activity against Pseudomonas aeruginosa […] after 18 to 24 hrs by microbroth dilution method; format: functional
Aspergillus ochraceus = assay: Antimicrobial activity against Aspergillus ochraceus NRRL 3174 after 48 to 72 hrs by microbroth dilution method; format: functional

SMILES	MIC (Escherichia coli)	MIC (Micrococcus luteus)	MIC (Staphylococcus aureus)	MIC (Fusarium solani)	MIC (Fusarium culmorum)	MIC (Candida albicans)	MIC (Trichoderma harzianum)	MIC (Bacillus subtilis)	MIC (Aspergillus parasiticus)	MIC (Fusarium verticillioides)	MIC (Penicillium chrysogenum)	MIC (Listeria monocytogenes)	viability at 100 µg/mL (C6 [1])	viability at 12 µg/mL (C6 [2])	viability at 6 µg/mL (C6 [3])	IC50 (NIH3T3)	viability at 200 µg/mL (C6 [4])	viability at 25 µg/mL (C6 [5])	viability at 50 µg/mL (C6 [6])	IC50 (C6 [7])	other results
N#Cc1ccc(-c2cs/c(=N/NC(=O)CSc3nnnn3-c3ccccc3)n2-c2ccccc2)cc1	250 µg/mL (≈ 490 µM)	250 µg/mL (≈ 490 µM)	500 µg/mL (≈ 979 µM)	250 µg/mL (≈ 490 µM)	250 µg/mL (≈ 490 µM)	250 µg/mL (≈ 490 µM)	250 µg/mL (≈ 490 µM)	250 µg/mL (≈ 490 µM)	250 µg/mL (≈ 490 µM)	250 µg/mL (≈ 490 µM)	250 µg/mL (≈ 490 µM)	250 µg/mL (≈ 490 µM)	59.8%	74.1%	78.8%	453 µg/mL (≈ 888 µM)	54%	64.2%	61.1%	> 200 µg/mL	MIC (Pseudomonas aeruginosa): 250 µg/mL (≈ 490 µM); MIC (Aspergillus ochraceus): 250 µg/mL (≈ 490 µM)
Cc1nnc(SCC(=O)N/N=c2/scc(-c3ccccc3)n2-c2ccccc2)s1	250 µg/mL (≈ 569 µM)	250 µg/mL (≈ 569 µM)	500 µg/mL (≈ 1140 µM)	250 µg/mL (≈ 569 µM)	250 µg/mL (≈ 569 µM)	250 µg/mL (≈ 569 µM)	125 µg/mL (≈ 284 µM)	500 µg/mL (≈ 1140 µM)	250 µg/mL (≈ 569 µM)	250 µg/mL (≈ 569 µM)	250 µg/mL (≈ 569 µM)	250 µg/mL (≈ 569 µM)	61.8%	72.5%	72.4%	197 µg/mL (≈ 447 µM)	59.2%	65.9%	63.9%	> 200 µg/mL	MIC (Pseudomonas aeruginosa): 250 µg/mL (≈ 569 µM); MIC (Aspergillus ochraceus): 250 µg/mL (≈ 569 µM)
Cc1ccc(-c2cs/c(=N/NC(=O)CSc3nncn3C)n2-c2ccccc2)cc1	125 µg/mL (≈ 286 µM)	125 µg/mL (≈ 286 µM)	250 µg/mL (≈ 573 µM)	250 µg/mL (≈ 573 µM)	250 µg/mL (≈ 573 µM)	125 µg/mL (≈ 286 µM)	125 µg/mL (≈ 286 µM)	250 µg/mL (≈ 573 µM)	250 µg/mL (≈ 573 µM)	250 µg/mL (≈ 573 µM)	250 µg/mL (≈ 573 µM)	250 µg/mL (≈ 573 µM)	39.6%	72%	74.6%	130 µg/mL (≈ 298 µM)	27.8%	70.7%	53.8%	56 µg/mL (≈ 128 µM)	MIC (Pseudomonas aeruginosa): 250 µg/mL (≈ 573 µM); MIC (Aspergillus ochraceus): 250 µg/mL (≈ 573 µM)

The next lines start with results.

MIC (Escherichia coli)	MIC (Micrococcus luteus)	MIC (Staphylococcus aureus)	MIC (Fusarium solani)	MIC (Fusarium culmorum)	MIC (Candida albicans)	MIC (Trichoderma harzianum)	MIC (Bacillus subtilis)	MIC (Aspergillus parasiticus)	MIC (Fusarium verticillioides)	MIC (Penicillium chrysogenum)	MIC (Listeria monocytogenes)	SMILES	viability at 100 µg/mL (C6 [1])	viability at 12 µg/mL (C6 [2])	viability at 6 µg/mL (C6 [3])	IC50 (NIH3T3)	viability at 200 µg/mL (C6 [4])	viability at 25 µg/mL (C6 [5])	viability at 50 µg/mL (C6 [6])	IC50 (C6 [7])	other results
250 µg/mL (≈ 571 µM)	250 µg/mL (≈ 571 µM)	500 µg/mL (≈ 1140 µM)	250 µg/mL (≈ 571 µM)	250 µg/mL (≈ 571 µM)	250 µg/mL (≈ 571 µM)	250 µg/mL (≈ 571 µM)	500 µg/mL (≈ 1140 µM)	250 µg/mL (≈ 571 µM)	250 µg/mL (≈ 571 µM)	250 µg/mL (≈ 571 µM)	250 µg/mL (≈ 571 µM)	O=C(CSc1ncccn1)N/N=c1/scc(-c2ccc(F)cc2)n1-c1ccccc1	53.4%	77.4%	84%	> 500 µg/mL	32.2%	63.9%	55.5%	110 µg/mL (≈ 251 µM)	MIC (Pseudomonas aeruginosa): 250 µg/mL (≈ 571 µM); MIC (Aspergillus ochraceus): 250 µg/mL (≈ 571 µM)
250 µg/mL (≈ 551 µM)	250 µg/mL (≈ 551 µM)	500 µg/mL (≈ 1100 µM)	250 µg/mL (≈ 551 µM)	250 µg/mL (≈ 551 µM)	250 µg/mL (≈ 551 µM)	250 µg/mL (≈ 551 µM)	500 µg/mL (≈ 1100 µM)	250 µg/mL (≈ 551 µM)	250 µg/mL (≈ 551 µM)	250 µg/mL (≈ 551 µM)	250 µg/mL (≈ 551 µM)	O=C(CSc1ncccn1)N/N=c1/scc(-c2ccc(Cl)cc2)n1-c1ccccc1	45.5%	91.6%	95.9%	397 µg/mL (≈ 874 µM)	39.7%	91.1%	61.8%	83.3 µg/mL (≈ 183 µM)	MIC (Pseudomonas aeruginosa): 250 µg/mL (≈ 551 µM); MIC (Aspergillus ochraceus): 250 µg/mL (≈ 551 µM)
250 µg/mL (≈ 577 µM)	250 µg/mL (≈ 577 µM)	250 µg/mL (≈ 577 µM)	250 µg/mL (≈ 577 µM)	250 µg/mL (≈ 577 µM)	250 µg/mL (≈ 577 µM)	250 µg/mL (≈ 577 µM)	500 µg/mL (≈ 1150 µM)	250 µg/mL (≈ 577 µM)	250 µg/mL (≈ 577 µM)	250 µg/mL (≈ 577 µM)	250 µg/mL (≈ 577 µM)	Cc1ccc(-c2cs/c(=N/NC(=O)CSc3ncccn3)n2-c2ccccc2)cc1	45.9%	83%	93.2%	> 500 µg/mL	43.7%	82.7%	64.4%	85 µg/mL (≈ 196 µM)	MIC (Pseudomonas aeruginosa): 250 µg/mL (≈ 577 µM); MIC (Aspergillus ochraceus): 250 µg/mL (≈ 577 µM)
250 µg/mL (≈ 556 µM)	250 µg/mL (≈ 556 µM)	250 µg/mL (≈ 556 µM)	250 µg/mL (≈ 556 µM)	250 µg/mL (≈ 556 µM)	250 µg/mL (≈ 556 µM)	250 µg/mL (≈ 556 µM)	250 µg/mL (≈ 556 µM)	250 µg/mL (≈ 556 µM)	250 µg/mL (≈ 556 µM)	250 µg/mL (≈ 556 µM)	250 µg/mL (≈ 556 µM)	COc1ccc(-c2cs/c(=N/NC(=O)CSc3ncccn3)n2-c2ccccc2)cc1	51.5%	78.4%	89.6%	450 µg/mL (≈ 1000 µM)	37.6%	74%	66.5%	102 µg/mL (≈ 226 µM)	MIC (Pseudomonas aeruginosa): 250 µg/mL (≈ 556 µM); MIC (Aspergillus ochraceus): 250 µg/mL (≈ 556 µM)
